In patent US11793983B2, “Sonodynamic therapy using microbubbles and pulsed wave ultrasound methods and systems” (University of Pittsburgh-Of the Commonwealth System of …, priority 2017, dated 2023):

Test system: Mouse squamous cell carcinoma cells SCC-VII
Assay: Cytotoxicity in vitro with ultrasound, alamarBlue cell viability assay
Type: cell-based
Conditions: +US, ISAPA=1 W/cm^2, 10% duty cycle, 2 min, 24 hours after treatment
Method: Mouse squamous cell carcinoma cells SCC-VII were cultured in RPMI 1640 medium supplemented with 10% fetal bovine serum (FBS), […] and 200 IU/mL penicillin (Gibco, ThermoFisher Scientific, Waltham, Mass.). Cells were harvested and suspended in a concentration of 1×10^6 cells/mL using serum free RPMI-1640 medium. Every 2 mL of cell suspension was transferred to 14 mL Falcon round-bottom polystyrene tubes. Immediately before the US treatment, the suspension was supplemented together with various concentrations of MBPpIX. US (1 MHz, 10% duty cycle) exposure time for each acoustic condition is 2 min. During exposure, the sample tube was gently shaking occasionally (every 10 sec) to improve mixing and to provide uniform exposure. Free PpIX (first dissolved in DMSO; final concentration: 2.9 μM) or PpIX liposome (precursor of MBPpIX, with equivalent PpIX concentration of 2.9 μM) were used for comparison and cells not treated were used as controls (NT). After treatment procedure, 300 μL of the cell suspension was transferred to a 24 well plate prefilled with 2 mL cell culture medium, and the cells were incubated at 37° C. for 24 hours. Cell viability was then measured using alamarBlue cell viability assay. Cell morphology was examined with bright field microscopy (IX81, Olympus, Center Valley, Pa.). […]

Q: How did the cell viability turn out when `C=CC1=C(C)c2cc3[nH]c(cc4nc(cc5[nH]c(cc1n2)c(C)c5CCC(=O)O)C(CCC(=O)O)=C4C)c(C)c3C=C` [PpIX, protoporphyrin IX] was run?
A: 4±3%
